In PubChem BioAssay AID1996:
Values after ≈ are worked out from the molar mass of the structure shown.

Settings: buffer; pH 7.4; 200.0 µM

solubility kinetic	Structure (SMILES)
2.7 µg/mL (≈ 8.1 µM)	COc1ccc2nc(C)cc(N3CCN(c4ccccc4)CC3)c2c1
> 52.7 µg/mL	CC(=O)Nc1ccccc1C(=O)N1CCN(c2cccc(C)c2C)CC1
> 45.8 µg/mL	CCOc1ccc(C(=O)CC(C(=O)O)N2CCCCC2)cc1 (stereo unspecified)
2.1 µg/mL (≈ 7.79 µM)	O=C(c1c[nH]c2ccccc12)C(Cl)c1ccccc1 (stereo unspecified)
10.6 µg/mL (≈ 30.7 µM)	COc1ccc(NC(=O)COC(=O)CCSc2ccccc2)cc1
> 47.1 µg/mL	CCOC(=O)NC(=O)c1cn(CCNCCO)c(=O)[nH]c1=O
> 51.8 µg/mL	CCOC(=O)c1c(C)[nH]c(C)c1C(=O)COC(=O)/C=C/c1ccco1
> 47.5 µg/mL	CC(=O)Nc1cccc(OCC(=O)NCCC2=CCCCC2)c1
< 0.7 µg/mL	O=C(Nc1ccc2c(c1)C(=O)OC2)c1ccc(C(F)(F)F)cc1
> 32.7 µg/mL	Nc1nc(F)cc(NCc2ccccc2)n1
> 33.9 µg/mL	Cc1cc(C)cc(C(=O)Nc2cccnc2)c1
> 47.2 µg/mL	Cc1ccc(-c2csc3ncn(C(C)C(=O)O)c(=O)c23)cc1 (stereo unspecified)
> 48.6 µg/mL	CC(C)C(=O)N1CCN(c2nc3ccc(Cl)cc3s2)CC1
> 67.3 µg/mL	CC(=O)Nc1ccc(S(=O)(=O)N(C)CC(=O)N2CCN(C(=O)c3ccco3)CC2)cc1
> 41.1 µg/mL	Cn1cc([N+](=O)[O-])c(C(=O)N/N=C/c2ccncc2)n1
> 51.4 µg/mL	CN1CCN(c2ncc(CN3C(=O)c4ccccc4C3=O)s2)CC1
5.6 µg/mL (≈ 16.7 µM)	O=C(CCCNC(=O)c1ccc(Cl)cc1)Nc1cccc(F)c1
10 µg/mL (≈ 29.7 µM)	O=C(Cn1c(=O)oc2ccccc21)Nc1ccccc1C(F)(F)F
4.6 µg/mL (≈ 14.1 µM)	O=C(COC(=O)c1ccccc1O)NC1CCCc2ccccc21 (stereo unspecified)
1.1 µg/mL (≈ 3.27 µM)	CCOC(=O)c1csc(NC(=O)CCSc2ccccc2)n1
0.5 µg/mL (≈ 1.57 µM)	Cc1cc(-c2onc(C)c2C(=O)Oc2ccc(Cl)cc2)no1
1.1 µg/mL (≈ 2.94 µM)	Cc1nc2nc(SCc3nc4ccccc4[nH]3)[nH]c2cc1Br

solubility kinetic	Structure (SMILES)
38.9 µg/mL (≈ 109 µM)	CCCN(CC(=O)Nc1ccccc1OC)C(=O)Cc1ccccc1F
44.1 µg/mL (≈ 122 µM)	COc1ccc(OC)c(/C=C/C(=O)OCC(=O)N2C(C)CCCC2C)c1 (stereo unspecified)
< 0.2 µg/mL	CC(C)c1nc2sc3c(=O)[nH]cnc3c2c2c1CCCC2
< 0.3 µg/mL	COc1ccc(-c2nc(C)ncc2-c2ccc(Cl)cc2)c(O)c1
38.5 µg/mL (≈ 140 µM)	Cc1c(Cl)cccc1NC(=O)NCc1ccccn1
> 50.2 µg/mL	CCOC(=O)NC(=S)Nc1c(C)n(C)n(-c2ccccc2)c1=O
26.3 µg/mL (≈ 140 µM)	O/N=C/c1ccc2cccc(O)c2n1
< 0.3 µg/mL	Cc1cc(-c2nc3ccccc3c(=O)o2)ccc1[N+](=O)[O-]
> 41.7 µg/mL	COc1ccccc1CN1CCNC(=O)C1CC(=O)O (stereo unspecified)
21.1 µg/mL (≈ 63.3 µM)	CC(=O)Nc1ccc(C(=S)NCC2(N(C)C)CCCCC2)cc1
1.5 µg/mL (≈ 4.14 µM)	O=C(CCCN1C(=O)c2cccc3cccc(c23)C1=O)NCc1ccco1
3.6 µg/mL (≈ 10.9 µM)	COc1cc(NC(=O)C2CC2)c(OC)cc1NC(=O)c1ccco1
35.9 µg/mL (≈ 130 µM)	CCOC(=O)Oc1ccc(/C=C2\N=C(C)OC2=O)cc1
> 50.6 µg/mL	COC(=O)c1sc(-c2cccs2)cc1NC(=O)/C=C/C(=O)O
42.4 µg/mL (≈ 146 µM)	O=C(NCC1CCCO1)c1ccc(Br)s1 (stereo unspecified)
19.8 µg/mL (≈ 58.4 µM)	Cc1ccc(C(=O)N2CCN(c3ccc(C(F)(F)F)cn3)CC2)o1
> 49.7 µg/mL	CN/C(=C\[N+](=O)[O-])NCCSCc1csc(CN(C)C)n1
> 34.4 µg/mL	N#C/C(=C\c1ccc[nH]1)C(=O)N1CCCCC1
47.4 µg/mL (≈ 129 µM)	O=C(CN1CCN(Cc2ccccc2)CC1)Nc1nc2ccccc2s1
39.5 µg/mL (≈ 148 µM)	CNc1nc(N)c([N+](=O)[O-])c(N2CCCCCC2)n1
< 0.3 µg/mL	CC(C)(C)c1ccc(/C=C2\SC(=O)N=C2N)cc1
> 29.4 µg/mL	O=C(NCC1CC1)Nc1cccs1

solubility kinetic	Structure (SMILES)
0.7 µg/mL (≈ 2.06 µM)	CCOC(=O)C1=C(C)NC(=O)NC1c1c(OC)ccc2ccccc12 (stereo unspecified)
34.7 µg/mL (≈ 109 µM)	CC1CC(C)CN(C(=O)C2CC(=O)N(c3ccc(F)cc3)C2)C1 (stereo unspecified)
> 46.5 µg/mL	Cc1nc(SCc2ccc(O)c([N+](=O)[O-])c2)c([N+](=O)[O-])[nH]1
10.7 µg/mL (≈ 48.6 µM)	CC(C)CCSc1nc2ccccc2[nH]1
37.2 µg/mL (≈ 149 µM)	CCCN1CNC(=S)N(c2cccc(C)c2)C1
> 50 µg/mL	Cc1ccccc1C(=O)c1c[nH]c(C(=O)NCCc2ccccn2)c1
27.3 µg/mL (≈ 98.4 µM)	CC(C)N1CCN(C(=O)c2ccc([N+](=O)[O-])cc2)CC1
> 48.1 µg/mL	O=S(=O)(NCCN1CCOCC1)c1ccc2ccccc2c1
5.4 µg/mL (≈ 20.6 µM)	CC1CCN(C(=S)c2ccc(N(C)C)cc2)CC1
11.6 µg/mL (≈ 29.1 µM)	CC1CCCC(NC(=O)COC(=O)COc2ccc(Br)cc2)C1C (stereo unspecified)
8.6 µg/mL (≈ 30.4 µM)	O=S(=O)(Nc1cccc2ccccc12)c1ccccc1
14.5 µg/mL (≈ 44 µM)	COC(=O)C1=C(N)OC2=C(C(=O)CCC2)C1c1ccccc1OC (stereo unspecified)
31.8 µg/mL (≈ 108 µM)	Cc1ccc(NC(=O)C(C)N2CCc3ccccc3C2)cc1 (stereo unspecified)
4.5 µg/mL (≈ 16.4 µM)	O=Cc1sc(N2CCOCC2)nc1-c1ccccc1
4.1 µg/mL (≈ 14.8 µM)	COc1ccc(CCC(=O)Nc2ncc(C)s2)cc1
> 50 µg/mL	CCN(CC(=O)NCc1ccncc1)S(=O)(=O)c1ccccc1
1.8 µg/mL (≈ 6.36 µM)	NC1=NC(=O)/C(=C/c2ccc(Br)cc2)S1
43.9 µg/mL (≈ 133 µM)	CN(Cc1cnccn1)Cc1nc(Cc2ccccc2Cl)no1
44.4 µg/mL	Cl.N=c1sccn1CC(=O)Nc1ccc(Cl)cc1[N+](=O)[O-]
1.4 µg/mL (≈ 4.32 µM)	Cc1ccnc(N2CCCC(C(=O)Nc3ccc(C)c(C)c3)C2)n1 (stereo unspecified)
41.3 µg/mL (≈ 131 µM)	COc1ccc2c(c1)nc(SCC(O)c1ccccc1)n2C (stereo unspecified)
43.2 µg/mL (≈ 128 µM)	O=C(CC(Nc1cccc(Cl)c1Cl)C(=O)O)c1ccccc1 (stereo unspecified)

solubility kinetic	Structure (SMILES)
6.4 µg/mL (≈ 19.7 µM)	O=C(COC(=O)c1ccc(Cl)nc1)Nc1ccc(Cl)cc1
< 0.3 µg/mL	Cc1cc(Sc2ccc([N+](=O)[O-])cn2)ccc1Br
5.1 µg/mL (≈ 14 µM)	O=C(Nc1cc(Cl)cc(Cl)c1)c1coc(=O)c(Br)c1
3.8 µg/mL (≈ 11.3 µM)	Cc1ccc(C(CC(=O)N2CCCCC2)c2ccccc2)c(O)c1C (stereo unspecified)
> 38.9 µg/mL	O=S(=O)(NCC1CCCO1)c1ccccc1F (stereo unspecified)
> 48.2 µg/mL	CC(C)On1c(SCC(=O)N(C)C)nc2ccccc2c1=O
0.6 µg/mL (≈ 2.24 µM)	COc1ccc(CNc2nc(C)cc(C)c2C#N)cc1
> 44.9 µg/mL	O=C(OCC(=O)C12CC3CC(CC(C3)C1)C2)c1ccccn1
39.7 µg/mL (≈ 118 µM)	CCC(=Nc1ccccc1O)C1=C(O)CC(c2ccccc2)CC1=O (stereo unspecified)
31.9 µg/mL (≈ 136 µM)	CC(C)(C)Nc1nc2ccc([N+](=O)[O-])cc2o1
17.9 µg/mL (≈ 54.5 µM)	CCCN(Cc1ccccc1)C(=S)Nc1ccc(OCC)cc1
> 48.1 µg/mL	CCOC(=O)N1CCC(NC(=O)c2ccccc2C(=O)O)CC1
16.8 µg/mL (≈ 54.3 µM)	O=C(COC(=O)c1ccc2ccccc2n1)c1ccc(F)cc1
33.8 µg/mL (≈ 95.9 µM)	COc1cc(CN(C)Cc2cccc3ccccc23)cc([N+](=O)[O-])c1O
< 0.3 µg/mL	O=C1/C(=C/c2ccccn2)SC(=S)N1Cc1ccccc1
> 57.9 µg/mL	O=C(CSCc1ccc(Cl)cc1Cl)Nc1ccc(O)cc1C(=O)O
> 42.5 µg/mL	O=C(N/N=C/c1ccncc1)C12CC3CC(CC(C3)C1)C2
44.3 µg/mL (≈ 141 µM)	COc1cc2c(cc1OC)CN(CC(O)c1ccccc1)CC2 (stereo unspecified)
12.8 µg/mL (≈ 36.8 µM)	Nc1nc2ccc(C(=O)NCCOC(=O)C3CCCCC3)cc2s1

Structure (SMILES)	solubility kinetic
COP(=O)(OC)C(NC(C)=O)C(Cl)(Cl)Cl (stereo unspecified)	> 44.8 µg/mL
